pIC50: −log10 of the molar value. Where two headings read alike, the source gives them in different places.
How the values were obtained:
LNCaP/AR cells = test: Inhibition of proliferation of LNCaP/AR prostate cancer cells (CCK-8); type: cell-based
androgen receptor (AR) = biological target: T1, androgen receptor (AR) (Homo sapiens, UniProt P10275); test: Degradation of androgen receptor (AR) protein in VCaP cells by ELISA; type: cell-based; details: for inhibition at 0.1 µM: 16 h, read-out: % degradation
T1 sequence (P10275 1-920): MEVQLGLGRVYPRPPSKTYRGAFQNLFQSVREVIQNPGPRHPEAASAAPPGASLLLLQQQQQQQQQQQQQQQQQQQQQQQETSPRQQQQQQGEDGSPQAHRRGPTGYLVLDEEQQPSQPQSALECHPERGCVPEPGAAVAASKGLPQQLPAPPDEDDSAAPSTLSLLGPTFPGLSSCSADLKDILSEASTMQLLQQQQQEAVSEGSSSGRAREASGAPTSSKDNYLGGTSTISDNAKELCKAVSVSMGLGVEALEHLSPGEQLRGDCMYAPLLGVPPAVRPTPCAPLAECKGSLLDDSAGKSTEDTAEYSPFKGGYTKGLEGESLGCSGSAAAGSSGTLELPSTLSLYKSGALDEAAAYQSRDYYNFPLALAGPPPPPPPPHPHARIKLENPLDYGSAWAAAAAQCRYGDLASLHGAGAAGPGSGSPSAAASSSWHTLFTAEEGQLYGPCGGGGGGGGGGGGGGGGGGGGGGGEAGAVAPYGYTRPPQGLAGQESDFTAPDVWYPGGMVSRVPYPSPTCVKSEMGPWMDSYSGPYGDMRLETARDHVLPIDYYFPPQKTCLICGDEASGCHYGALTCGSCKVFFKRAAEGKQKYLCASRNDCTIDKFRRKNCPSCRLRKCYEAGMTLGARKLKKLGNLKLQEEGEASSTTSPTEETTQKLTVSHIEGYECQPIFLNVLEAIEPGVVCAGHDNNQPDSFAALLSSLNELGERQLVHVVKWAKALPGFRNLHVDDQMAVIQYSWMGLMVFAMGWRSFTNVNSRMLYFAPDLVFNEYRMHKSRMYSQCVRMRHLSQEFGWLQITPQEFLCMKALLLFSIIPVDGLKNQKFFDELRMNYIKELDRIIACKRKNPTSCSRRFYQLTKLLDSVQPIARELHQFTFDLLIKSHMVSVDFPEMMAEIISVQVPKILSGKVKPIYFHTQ

[1] = proliferation of LNCap/AR cells, 6 days, CCK-8, read-out: IC50
[2] = 144 h, proliferation of LNCap/AR cells, 6 days, CCK-8, read-out: IC50
[3] = percentage of degraded AR at 100 nM, VCaP cells, ELISA

Row | Compound | pIC50 (LNCaP/AR cells; LNCaP/AR, 144 h) | pIC50 (LNCaP/AR cells; [2]) | inhibition at 0.1 µM (androgen receptor (AR); [3]) | also measured
1 | CC(=O)O[C@@H]1C[C@H](C(=O)N[C@@H](C)c2ccc(-c3scnc3C)cc2)N(C(=O)[C@@H](NC(=O)COCCCCC#Cc2ccc3c(c2)C(=O)N(C2C(C)(C)C(Oc4ccc(C#N)c(Cl)c4)C2(C)C)C3)C(C)(C)C)C1 (stereo partly drawn) [Compound 4, (3R,5R)-1-((S)-2-(2-((6-(2-((1R,3R)-3-(3-chloro-4-cyanophenoxy)-2,2,4,4-tetramethylcyclobutyl)-3-oxoisoindolin-5-yl)hex-5-yn-1-yl)oxy)acetylamino)-3,3-dimethylbutyryl)-5-(((S)-1-(4-(4-methylthiazol-5-yl)phenyl)ethyl)carbamoyl) pyrrolidin-3-yl acetate] | – | – | – | pIC50 (LNCaP/AR cells; [1]): > 7.00; % degradation (androgen receptor (AR)): C (key: A: >80%; B: 79%-50%; C: 49%-25%; D: <25%)
2 | CC(=O)O[C@@H]1C[C@@H](C(=O)N[C@@H](C)c2ccc(-c3scnc3C)cc2)N(C(=O)[C@@H](NC(=O)CN2CCC(CN3CCN(c4ccc(C(=O)NC5C[C@@]6(C)O[C@]5(C)[C@@H]5C(=O)N(c7ccc(C#N)c(Cl)c7)C(=O)[C@@H]56)cn4)CC3)CC2)C(C)(C)C)C1 (stereo partly drawn) [Compound 17, (3R,5S)-1-((2S)-2-(2-(4-((4-(5-(((3aR,4R,7R,7aS)-2-(3-chloro-4-benzonitrile)-4,7-dimethyl-1,3-dioxooctahydro-1H-4,7-epoxyisoindolin-5-yl)carbamoyl) (pyridin-2-yl)piperazin-1-yl)methyl)piperidin-1-yl)acetylamino)-3,3-dimethylbutyryl)-5-(((S)-1-(4-(4-methylthiazol-5-yl)phenyl)ethyl)carbamoyl)pyrrolidin-3-yl acetate] | > 7.00 | – | – | inhibition at 0.1 µM (androgen receptor (AR); VCaP): 50 to 79%
3 | N#Cc1ccc(O[C@H]2CC[C@H](N3Cc4nc(N5CCC(CN6CCN(c7cc8c(cc7F)CN(C7CCC(=O)NC7=O)C8=O)CC6)CC5)ccc4C3=O)CC2)cc1Cl (stereo partly drawn) [Compound 203] | – | < 6.00 | < 25% | –
4 | Cc1ncsc1-c1ccc([C@H](C)NC(=O)[C@H]2C[C@@H](O)CN2C(=O)[C@@H](NC(=O)COCCCCC#Cc2cc3c(cn2)C(=O)N(C2C(C)(C)C(Oc4ccc(C#N)c(Cl)c4)C2(C)C)C3)C(C)(C)C)cc1 (stereo partly drawn) [Compound 38] | – | – | – | pIC50 (LNCaP/AR cells; [1]): > 7.00; % degradation (androgen receptor (AR)): B (key: A: >80%; B: 79%-50%; C: 49%-25%; D: <25%)
5 | N#Cc1ccc(O[C@H]2CC[C@H](N3Cc4nc(N5CCC(CN6CCN(c7cc8c(cc7F)C(=O)N(C7CCC(=O)NC7=O)C8=O)CC6)CC5)ccc4C3=O)CC2)cc1Cl (stereo partly drawn) [Compound 200] | – | < 6.00 | – | inhibition at 0.1 µM (androgen receptor (AR); VCaP): 50 to 79%
6 | N#Cc1ccc(O[C@H]2CC[C@H](N3Cc4nc(N5CCC(CN6CCN(c7cc8c(cc7F)C(=O)N(C7CCC(=O)NC7=O)C8)CC6)CC5)ccc4C3=O)CC2)cc1Cl (stereo partly drawn) [Compound 204] | – | > 7.00 | 50 to 79% | –
7 | Cc1ncsc1-c1ccc([C@H](C)NC(=O)[C@@H]2C[C@@H](O)CN2C(=O)[C@@H](NC(=O)COCC(C)OCC#Cc2ccc3c(c2)CN([C@H]2C(C)(C)[C@H](Oc4ccc(C#N)c(Cl)c4)C2(C)C)C3=O)C(C)(C)C)cc1 (stereo partly drawn) [Compound 15] | – | > 7.00 | 25 to 49% | –
8 | Cc1ncsc1-c1ccc([C@@H](C)NC(=O)[C@H]2C[C@@H](O)CN2C(=O)[C@H](NC(=O)COCCCCCNc2ccc(C(=O)NC3C[C@]4(C)O[C@@]3(C)[C@@H]3C(=O)N(c5ccc(C#N)c(Cl)c5)C(=O)[C@@H]34)c(F)c2)C(C)(C)C)cc1 (stereo partly drawn) [Compound 20, (2R,4S)-1-((2R)-2-(2-((5-((4-(((3aS,4S,7S,7aR)-2-(3-chloro-4-benzonitrile)-4,7-dimethyl-1,3-dioxooctahydro-1H-4,7-epoxyisoindolin-5-yl)carbamoyl)-3-fluorophenyl)amino)pentyl)oxy)acetylamino)-3,3-dimethylbutyryl)-4-hydroxy-N-((R)-1-(4-(4-methylthiazol-5-yl)phenyl)ethyl)pyrrolidine-2-carboxamide] | > 7.00 | – | – | inhibition at 0.1 µM (androgen receptor (AR); VCaP): 25 to 49%
9 | (2R,4R)-1-((S)-2-(2-((5-((2-((1r,3r)-3-(4-cyano-3-(trifluoromethyl) phenoxy)-2,2,4,4-tetramethylcyclobutyl)-1-oxoisoindolin-5-yl)amino)phenyl)oxy) acetylamino)-3,3-dimethylbutyryl)-4-hydroxy-N-((R)-1-(4-(4-methylthiazol-5-yl)phenyl)ethyl)pyrrole-2-formamide [Compound 16] | – | – | – | pIC50 (LNCaP/AR cells; [1]): > 7.00; % degradation (androgen receptor (AR)): C (key: A: >80%; B: 79%-50%; C: 49%-25%; D: <25%)
10 | CC(=O)O[C@@H]1C[C@@H](C(=O)N[C@@H](C)c2ccc(-c3scnc3C)cc2)N(C(=O)[C@@H](NC(=O)COCCOCC#Cc2ccc3c(c2)CN([C@H]2C(C)(C)[C@H](Oc4ccc(C#N)c(Cl)c4)C2(C)C)C3=O)C(C)(C)C)C1 [Compound 12, (3R,5S)-1-((S)-2-(2-(2-((3-(2-((1r,3r)-3-(3-chloro-4-cyanophenoxy)-2,2,4,4-tetramethylcyclobutyl)-1-oxoisoindolin-5-yl)prop-2-yn-1-yl)oxy)propoxy)acetylamino)-3,3-dimethylbutyryl)-5-((((S)-1-acetic acid (4-(4-methylthiazol-5-yl)phenyl)ethyl)carbamoyl)pyrrolidin-3-yl acetate] | > 7.00 | – | 50 to 79% | –
11 | [2H]C([2H])([2H])N(C(=O)c1ccc(C#CCCCOCC(=O)N[C@H](C(=O)N2C[C@H](O)C[C@H]2C(=O)N[C@@H](C)c2ccc(-c3scnc3C)cc2)C(C)(C)C)cc1)[C@H]1C(C)(C)[C@H](Oc2ccc(C#N)c(Cl)c2)C1(C)C [Compound 22] | – | > 7.00 | 25 to 49% | –
12 | N#Cc1ccc(O[C@H]2CC[C@H](N3Cc4nc(N5CCC(CN6CCN(c7cccc8c7C(=O)N(C7CCC(=O)NC7=O)C8=O)CC6)CC5)ccc4C3=O)CC2)cc1Cl (stereo partly drawn) [Compound 217] | – | < 6.00 | < 25% | –
13 | CC(=O)O[C@@H]1C[C@H](C(=O)N[C@H](C)c2ccc(-c3scnc3C)cc2)N(C(=O)[C@H](NC(=O)COCCCCCNc2ccc(C(=O)NC3C[C@]4(C)O[C@@]3(C)[C@@H]3C(=O)N(c5ccc(C#N)c(Cl)c5)C(=O)[C@@H]34)c(F)c2)C(C)(C)C)C1 (stereo partly drawn) [Compound 19, (3S,5R)-1-((2R)-2-(2-((5-((4-(((3aS,4S,7S,7aR)-2-(3-chloro-4-benzonitrile)4,7-dimethyl-1,3-dioxooctahydro-1H-4,7-epoxyisoindolin-5-yl)carbamoyl)-3-fluorophenyl)amino)pentyl)oxy)acetylamino)-3,3-dimethylbutyryl)-5-(((R)-1-(4-(4-methylthiazol-5-yl)phenyl)ethyl)carbamoyl)pyrrolidin-3-yl acetate] | > 7.00 | – | – | inhibition at 0.1 µM (androgen receptor (AR); VCaP): < 25%
14 | N#Cc1ccc(O[C@H]2CC[C@H](N3Cc4nc(N5CC[C@@H](CN6CCN(c7cc8c(cc7F)CN(C7CCC(=O)NC7=O)C8=O)CC6)C5)ccc4C3=O)CC2)cc1Cl (stereo partly drawn) [Compound 54] | – | < 6.00 | 25 to 49% | –
15 | CC(=O)O[C@@H]1C[C@@H](C(=O)N[C@@H](C)c2ccc(-c3scnc3C)cc2)N(C(=O)[C@@H](NC(=O)COCC(C)OCC#Cc2ccc3c(c2)CN([C@H]2C(C)(C)[C@H](Oc4ccc(C#N)c(Cl)c4)C2(C)C)C3=O)C(C)(C)C)C1 (stereo partly drawn) [Compound 14, (3R,5S)-1-((2S)-2-(2-(2-((3-(2-((1r,3r)-3-(3-chloro-4-cyanophenoxy)-2,2,4,4-tetramethylcyclobutyl)-1-oxoisoindol-5-yl)prop-2-yn-1-yl)oxy)propoxy)acetylamino)-3,3-dimethylbutyryl)-5-((((S)-1-acetic acid (4-(4-methylthiazol-5-yl)phenyl)ethyl)carbamoyl)pyrrolidin-3-yl acetate] | > 7.00 | – | 50 to 79% | –
